Experiments:
[1] = molecular target: T1, CDC2L5 (Homo sapiens, UniProt Q14004); test: scanMAX Kinase panel (DiscoverX); format: binding
T1 construct: purchased DiscoverX scanMAX Kinase panel
Protocol: (§1) Among the example compounds of the present invention, the enzyme (kinase) selectivity of the selected compounds of Examples 1 and 4 was measured by requesting DiscoverX. At this time, the experiment was performed using a panel for scanMAX™ Kinase. The concentration of the drug treated to the enzyme was 1 μM in DMSO, and the percentage control (% control) was determined by the method shown in Equation 1 below. (Example Compound−Positive Control)/(Negative Control−Positive control)×100 [Equation 1]
In addition, if the enzyme selectivity of the compound of the present invention was less than the percentage control of 35% (<35%) for each enzyme, it was judged to have activity for the enzyme.

[2] = test system: Parental (Ba/F3); test: Ba/F3 cell proliferation inhibition; format: cell-based; conditions: BaF3; 72 hours, Cell Counting Kit-8
Method in brief: (§2)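 Parental and T315I-Bcr-Abl Ba/F3 cells, 1×10^4 per well, exposed 72 h at 37 °C to nine 3-fold dilutions, final 0 to 10 μM. Viability by CCK-8 after 2 h, absorbance 450 nm; GI50 fitted from percent of vehicle-treated cells.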

[3] = test system: T315I-Bcr-Abl (Ba/F3); test: Ba/F3 cell proliferation inhibition; format: cell-based; conditions: BaF3; 72 hours, Cell Counting Kit-8
Method in brief: as §2

[4] = molecular target: T2, TRKA (Homo sapiens, UniProt P04629); test: scanMAX Kinase panel (DiscoverX); format: binding; conditions: read-out: % Cont @ 1 uM
T2 construct: purchased DiscoverX scanMAX Kinase panel
Protocol: as §1

[5] = molecular target: T3, LIMK1 (Homo sapiens, UniProt P53667); test: scanMAX Kinase panel (DiscoverX); format: binding; conditions: read-out: % Cont @ 1 uM
T3 construct: purchased DiscoverX scanMAX Kinase panel
Protocol: as §1

[6] = molecular target: T4, KIT(V559D) (Homo sapiens, UniProt P10721, V559D); test: scanMAX Kinase panel (DiscoverX); format: binding; conditions: read-out: % Cont @ 1 uM
T4 construct: purchased DiscoverX scanMAX Kinase panel
Protocol: as §1

[7] = molecular target: T5, FLT3(D835V) (Homo sapiens, UniProt P36888, D835V); test: scanMAX Kinase panel (DiscoverX); format: binding; conditions: read-out: % Cont @ 1 uM
T5 construct: purchased DiscoverX scanMAX Kinase panel
Protocol: as §1

[8] = molecular target: T6, MAP4K3 (Homo sapiens, UniProt Q8IVH8); test: scanMAX Kinase panel (DiscoverX); format: binding
T6 construct: purchased DiscoverX scanMAX Kinase panel
T6 sequence (Q8IVH8 whole entry): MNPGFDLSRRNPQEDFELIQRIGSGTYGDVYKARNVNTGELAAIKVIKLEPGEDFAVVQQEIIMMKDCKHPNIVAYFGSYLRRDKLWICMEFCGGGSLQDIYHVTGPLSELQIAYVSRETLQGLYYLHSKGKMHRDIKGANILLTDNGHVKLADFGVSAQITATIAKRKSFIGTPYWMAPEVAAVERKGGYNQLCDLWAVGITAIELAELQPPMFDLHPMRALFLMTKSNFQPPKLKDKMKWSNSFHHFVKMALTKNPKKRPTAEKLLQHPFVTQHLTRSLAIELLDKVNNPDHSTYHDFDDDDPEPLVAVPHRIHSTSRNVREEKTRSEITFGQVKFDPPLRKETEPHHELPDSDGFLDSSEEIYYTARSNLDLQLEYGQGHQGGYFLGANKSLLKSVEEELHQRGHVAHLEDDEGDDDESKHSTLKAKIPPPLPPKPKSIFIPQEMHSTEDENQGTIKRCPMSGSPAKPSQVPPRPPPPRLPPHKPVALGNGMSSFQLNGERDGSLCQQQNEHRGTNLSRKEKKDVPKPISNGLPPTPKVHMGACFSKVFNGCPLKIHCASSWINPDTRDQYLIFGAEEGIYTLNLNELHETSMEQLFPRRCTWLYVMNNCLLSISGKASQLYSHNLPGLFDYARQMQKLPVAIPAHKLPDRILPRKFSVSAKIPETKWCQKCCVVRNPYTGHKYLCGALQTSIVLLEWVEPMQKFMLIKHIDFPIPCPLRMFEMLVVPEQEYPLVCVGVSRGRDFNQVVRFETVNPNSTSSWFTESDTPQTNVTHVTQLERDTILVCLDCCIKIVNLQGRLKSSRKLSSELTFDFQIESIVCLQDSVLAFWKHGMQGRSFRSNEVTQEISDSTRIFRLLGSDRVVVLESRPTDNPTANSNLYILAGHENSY
Protocol: as §1

[9] = molecular target: T7, DLK (Homo sapiens, UniProt Q12852); test: scanMAX Kinase panel (DiscoverX); format: binding
T7 construct: purchased DiscoverX scanMAX Kinase panel
Protocol: as §1

[10] = molecular target: T8, FLT3(N841I) (Homo sapiens, UniProt P36888, N841I); test: scanMAX Kinase panel (DiscoverX); format: binding; conditions: read-out: % Cont @ 1 uM
T8 construct: purchased DiscoverX scanMAX Kinase panel
Protocol: as §1

[11] = molecular target: T9, VEGFR2 (Homo sapiens, UniProt P35968); test: scanMAX Kinase panel (DiscoverX); format: binding; conditions: read-out: % Cont @ 1 uM
T9 construct: purchased DiscoverX scanMAX Kinase panel
Protocol: as §1

[12] = test system: FLT3(ITD); test: scanMAX Kinase panel (DiscoverX); format: binding
Protocol: as §1

[13] = molecular target: T10, FLT1 (Homo sapiens, UniProt P17948); test: scanMAX Kinase panel (DiscoverX); format: binding; conditions: read-out: % Cont @ 1 uM
T10 construct: purchased DiscoverX scanMAX Kinase panel
T10 sequence (P17948 27-1338): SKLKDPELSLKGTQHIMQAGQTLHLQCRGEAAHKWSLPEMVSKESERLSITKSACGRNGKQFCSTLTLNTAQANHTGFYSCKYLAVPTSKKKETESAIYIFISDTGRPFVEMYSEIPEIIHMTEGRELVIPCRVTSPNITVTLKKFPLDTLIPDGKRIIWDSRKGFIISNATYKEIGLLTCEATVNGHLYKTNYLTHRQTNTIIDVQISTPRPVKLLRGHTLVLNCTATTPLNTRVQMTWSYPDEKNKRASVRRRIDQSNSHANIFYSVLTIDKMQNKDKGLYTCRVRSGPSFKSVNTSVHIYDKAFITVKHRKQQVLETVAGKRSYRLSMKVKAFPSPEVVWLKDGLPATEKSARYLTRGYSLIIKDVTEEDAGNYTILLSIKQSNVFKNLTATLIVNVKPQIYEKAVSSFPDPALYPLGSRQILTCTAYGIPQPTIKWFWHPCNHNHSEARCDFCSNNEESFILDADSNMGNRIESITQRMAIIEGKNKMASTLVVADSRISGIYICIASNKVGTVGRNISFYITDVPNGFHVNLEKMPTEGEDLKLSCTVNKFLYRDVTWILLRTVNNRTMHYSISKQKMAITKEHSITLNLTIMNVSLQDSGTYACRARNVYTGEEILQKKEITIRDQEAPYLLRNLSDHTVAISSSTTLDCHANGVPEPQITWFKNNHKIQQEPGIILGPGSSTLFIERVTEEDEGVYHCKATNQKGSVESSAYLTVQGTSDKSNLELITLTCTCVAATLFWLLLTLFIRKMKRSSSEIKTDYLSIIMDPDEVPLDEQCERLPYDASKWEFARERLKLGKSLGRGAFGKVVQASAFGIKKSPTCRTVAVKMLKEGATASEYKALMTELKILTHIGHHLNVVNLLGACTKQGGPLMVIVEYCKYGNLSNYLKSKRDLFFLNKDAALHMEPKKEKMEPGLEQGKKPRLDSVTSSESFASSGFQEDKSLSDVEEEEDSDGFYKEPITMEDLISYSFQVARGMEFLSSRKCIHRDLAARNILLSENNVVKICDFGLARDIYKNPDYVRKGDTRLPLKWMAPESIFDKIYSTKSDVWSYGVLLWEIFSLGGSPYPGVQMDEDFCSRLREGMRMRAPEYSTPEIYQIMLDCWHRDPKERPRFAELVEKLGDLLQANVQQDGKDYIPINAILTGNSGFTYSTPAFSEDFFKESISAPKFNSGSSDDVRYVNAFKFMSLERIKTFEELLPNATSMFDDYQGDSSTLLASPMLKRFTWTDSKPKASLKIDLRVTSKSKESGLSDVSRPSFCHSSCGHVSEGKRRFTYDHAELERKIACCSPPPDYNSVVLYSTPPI
Protocol: as §1

[14] = molecular target: T11, EPHA3 (Homo sapiens, UniProt P29320); test: scanMAX Kinase panel (DiscoverX); format: binding; conditions: read-out: % Cont @ 1 uM
T11 construct: purchased DiscoverX scanMAX Kinase panel
Protocol: as §1

[15] = molecular target: T12, EPHB6 (Homo sapiens, UniProt O15197); test: scanMAX Kinase panel (DiscoverX); format: binding; conditions: read-out: % Cont @ 1 uM
T12 construct: purchased DiscoverX scanMAX Kinase panel
T12 sequence (O15197 32-1021): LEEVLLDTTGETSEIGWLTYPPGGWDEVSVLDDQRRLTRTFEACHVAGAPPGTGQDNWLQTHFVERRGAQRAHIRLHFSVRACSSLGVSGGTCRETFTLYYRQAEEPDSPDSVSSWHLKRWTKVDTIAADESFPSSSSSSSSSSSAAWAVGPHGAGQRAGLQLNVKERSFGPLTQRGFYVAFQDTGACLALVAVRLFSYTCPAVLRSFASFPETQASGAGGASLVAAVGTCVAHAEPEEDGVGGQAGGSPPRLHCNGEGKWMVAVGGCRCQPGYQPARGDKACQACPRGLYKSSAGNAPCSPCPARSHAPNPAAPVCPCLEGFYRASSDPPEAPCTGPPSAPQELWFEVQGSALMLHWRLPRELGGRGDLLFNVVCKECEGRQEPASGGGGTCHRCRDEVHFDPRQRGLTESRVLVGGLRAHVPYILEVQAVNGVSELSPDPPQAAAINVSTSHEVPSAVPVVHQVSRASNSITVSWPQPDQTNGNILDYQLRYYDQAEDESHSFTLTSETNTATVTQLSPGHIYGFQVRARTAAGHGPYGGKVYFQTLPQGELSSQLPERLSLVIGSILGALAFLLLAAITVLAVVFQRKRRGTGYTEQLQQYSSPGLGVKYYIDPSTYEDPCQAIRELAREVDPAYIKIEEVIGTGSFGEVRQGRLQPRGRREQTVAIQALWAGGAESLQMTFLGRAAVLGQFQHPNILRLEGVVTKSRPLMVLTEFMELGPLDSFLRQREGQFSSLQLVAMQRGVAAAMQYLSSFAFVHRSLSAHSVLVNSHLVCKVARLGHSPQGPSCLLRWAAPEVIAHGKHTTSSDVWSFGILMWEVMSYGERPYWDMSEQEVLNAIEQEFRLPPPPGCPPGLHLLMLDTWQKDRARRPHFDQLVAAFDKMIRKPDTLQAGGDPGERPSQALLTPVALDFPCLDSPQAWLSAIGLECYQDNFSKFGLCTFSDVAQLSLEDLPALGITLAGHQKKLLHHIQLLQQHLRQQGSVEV
Protocol: as §1

[16] = molecular target: T13, ABL1(F317L)-phosphorylated (Homo sapiens, UniProt P00519, F317L); test: scanMAX Kinase panel (DiscoverX); format: binding; conditions: read-out: % Cont @ 1 uM
T13 construct: purchased DiscoverX
Protocol: as §1

[17] = molecular target: T14, BTK (Homo sapiens, UniProt Q06187); test: scanMAX Kinase panel (DiscoverX); format: binding
T14 construct: purchased DiscoverX scanMAX Kinase panel
Protocol: as §1

[18] = molecular target: T15, TIE1 (Homo sapiens, UniProt P35590); test: scanMAX Kinase panel (DiscoverX); format: binding; conditions: read-out: % Cont @ 1 uM
T15 construct: purchased DiscoverX scanMAX Kinase panel
Protocol: as §1

[19] = molecular target: T16, PDGFRA (Homo sapiens, UniProt P16234); test: scanMAX Kinase panel (DiscoverX); format: binding; conditions: read-out: % Cont @ 1 uM
T16 construct: purchased DiscoverX scanMAX Kinase panel
Protocol: as §1

[20] = molecular target: T17, RIOK3 (Homo sapiens, UniProt O14730); test: scanMAX Kinase panel (DiscoverX); format: binding; conditions: read-out: % Cont @ 1 uM
T17 construct: purchased DiscoverX scanMAX Kinase panel
Protocol: as §1

[21] = molecular target: T18, AURKB (Homo sapiens, UniProt Q96GD4); test: scanMAX Kinase panel (DiscoverX); format: binding; conditions: read-out: % Cont @ 1 uM
T18 construct: purchased DiscoverX scanMAX Kinase panel
Protocol: as §1

[22] = molecular target: T19, p38-beta (Homo sapiens, UniProt Q15759); test: scanMAX Kinase panel (DiscoverX); format: binding; conditions: read-out: % Cont @ 1 uM
T19 construct: purchased DiscoverX scanMAX Kinase panel
Protocol: as §1

[23] = molecular target: T20, ABL1-nonphosphorylated (Homo sapiens, UniProt P00519); test: scanMAX Kinase panel (DiscoverX); format: binding; conditions: read-out: % Cont @ 1 uM
T20 construct: purchased DiscoverX scanMAX Kinase panel
Protocol: as §1

[24] = molecular target: T21, TAK1 (Homo sapiens, UniProt O43318); test: scanMAX Kinase panel (DiscoverX); format: binding; conditions: read-out: % Cont @ 1 uM
T21 construct: purchased DiscoverX scanMAX Kinase panel
T21 sequence (O43318 whole entry): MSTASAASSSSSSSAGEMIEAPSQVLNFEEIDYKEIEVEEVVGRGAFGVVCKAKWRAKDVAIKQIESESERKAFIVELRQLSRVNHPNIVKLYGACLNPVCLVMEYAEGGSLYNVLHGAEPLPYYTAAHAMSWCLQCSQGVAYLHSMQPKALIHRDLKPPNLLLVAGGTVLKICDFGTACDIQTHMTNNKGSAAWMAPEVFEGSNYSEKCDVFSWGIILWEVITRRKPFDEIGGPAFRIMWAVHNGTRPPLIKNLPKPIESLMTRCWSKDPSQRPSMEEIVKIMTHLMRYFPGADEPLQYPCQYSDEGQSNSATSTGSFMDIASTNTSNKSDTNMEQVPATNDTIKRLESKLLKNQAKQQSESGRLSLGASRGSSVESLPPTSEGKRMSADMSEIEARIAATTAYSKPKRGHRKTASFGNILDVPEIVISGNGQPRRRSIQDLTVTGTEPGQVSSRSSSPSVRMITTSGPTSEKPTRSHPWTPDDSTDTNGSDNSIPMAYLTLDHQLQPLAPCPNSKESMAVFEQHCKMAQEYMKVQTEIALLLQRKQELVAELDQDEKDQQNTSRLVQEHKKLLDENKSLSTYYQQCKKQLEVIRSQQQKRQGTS
Protocol: as §1

[25] = molecular target: T22, CDK11 (Homo sapiens, UniProt Q9BWU1); test: scanMAX Kinase panel (DiscoverX); format: binding
T22 construct: purchased DiscoverX scanMAX Kinase panel
Protocol: as §1

[26] = molecular target: T23, EGFR(G719S) (Homo sapiens, UniProt P00533, G719S); test: scanMAX Kinase panel (DiscoverX); format: binding
T23 construct: purchased DiscoverX scanMAX Kinase panel
Protocol: as §1

[27] = molecular target: T24, PDGFRB (Homo sapiens, UniProt P09619); test: scanMAX Kinase panel (DiscoverX); format: binding; conditions: read-out: % Cont @ 1 uM
T24 construct: purchased DiscoverX scanMAX Kinase panel
Protocol: as §1

[28] = molecular target: T25, EGFR(S752-I759del) (Homo sapiens, UniProt P00533, DEL752-759); test: scanMAX Kinase panel (DiscoverX); format: binding
T25 construct: purchased DiscoverX scanMAX Kinase panel
Protocol: as §1

[29] = molecular target: T26, ERK8 (Homo sapiens, UniProt Q8TD08); test: scanMAX Kinase panel (DiscoverX); format: binding; conditions: read-out: % Cont @ 1 uM
T26 construct: purchased DiscoverX scanMAX Kinase panel
Protocol: as §1

[30] = molecular target: T27, TNK2 (Homo sapiens, UniProt Q07912); test: scanMAX Kinase panel (DiscoverX); format: binding; conditions: read-out: % Cont @ 1 uM
T27 construct: purchased DiscoverX scanMAX Kinase panel
Protocol: as §1

[31] = molecular target: T28, EPHA8 (Homo sapiens, UniProt P29322); test: scanMAX Kinase panel (DiscoverX); format: binding; conditions: read-out: % Cont @ 1 uM
T28 construct: purchased DiscoverX scanMAX Kinase panel
Protocol: as §1

[32] = molecular target: T29, LCK (Homo sapiens, UniProt P06239); test: scanMAX Kinase panel (DiscoverX); format: binding; conditions: read-out: % Cont @ 1 uM
T29 construct: purchased DiscoverX scanMAX Kinase panel
Protocol: as §1

[33] = molecular target: T30, RET(M918T) (Homo sapiens, UniProt P07949, M918T); test: scanMAX Kinase panel (DiscoverX); format: binding; conditions: read-out: % Cont @ 1 uM
T30 construct: purchased DiscoverX scanMAX Kinase panel
T30 sequence (P07949 29-1114 M918T): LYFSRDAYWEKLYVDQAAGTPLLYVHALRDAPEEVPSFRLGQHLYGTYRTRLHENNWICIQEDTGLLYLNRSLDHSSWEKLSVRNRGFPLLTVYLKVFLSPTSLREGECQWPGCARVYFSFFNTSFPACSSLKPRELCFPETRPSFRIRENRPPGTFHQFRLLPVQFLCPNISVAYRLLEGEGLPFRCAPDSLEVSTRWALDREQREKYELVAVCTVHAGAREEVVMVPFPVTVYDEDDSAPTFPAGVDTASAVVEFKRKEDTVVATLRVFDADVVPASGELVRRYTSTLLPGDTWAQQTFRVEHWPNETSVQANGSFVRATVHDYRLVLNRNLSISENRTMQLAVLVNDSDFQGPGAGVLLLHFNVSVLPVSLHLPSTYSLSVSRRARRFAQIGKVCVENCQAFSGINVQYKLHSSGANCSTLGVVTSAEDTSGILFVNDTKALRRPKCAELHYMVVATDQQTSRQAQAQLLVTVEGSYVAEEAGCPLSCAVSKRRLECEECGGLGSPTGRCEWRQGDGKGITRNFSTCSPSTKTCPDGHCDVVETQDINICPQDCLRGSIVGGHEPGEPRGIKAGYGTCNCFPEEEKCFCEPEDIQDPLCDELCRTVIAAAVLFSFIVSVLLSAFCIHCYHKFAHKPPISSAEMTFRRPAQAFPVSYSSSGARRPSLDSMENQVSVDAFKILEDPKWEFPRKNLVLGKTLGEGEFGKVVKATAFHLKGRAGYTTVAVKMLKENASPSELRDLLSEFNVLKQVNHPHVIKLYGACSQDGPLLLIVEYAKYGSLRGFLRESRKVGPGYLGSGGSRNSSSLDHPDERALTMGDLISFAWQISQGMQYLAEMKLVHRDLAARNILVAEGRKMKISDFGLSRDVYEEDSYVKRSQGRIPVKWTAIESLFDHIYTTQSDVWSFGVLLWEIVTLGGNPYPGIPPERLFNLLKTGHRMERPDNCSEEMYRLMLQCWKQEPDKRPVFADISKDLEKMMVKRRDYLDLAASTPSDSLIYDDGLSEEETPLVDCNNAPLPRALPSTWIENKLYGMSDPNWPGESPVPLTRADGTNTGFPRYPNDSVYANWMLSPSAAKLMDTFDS
Protocol: as §1

| Structure (SMILES) | % Cont @ 1 uM [1] [%] | GI50 [2] [µM] | GI50 [3] [nM] | remaining binding at 1 µM [4] [%] | percent of control binding at 1 µM [5] [%] | remaining binding at 1 µM [6] [%] | remaining binding at 1 µM [7] [%] | % Cont @ 1 uM [8] [%] | % Cont @ 1 uM [9] [%] | remaining binding at 1 µM [10] [%] | remaining binding at 1 µM [11] [%] | % Cont @ 1 uM [12] [%] | remaining binding at 1 µM [13] [%] | remaining binding at 1 µM [14] [%] | remaining binding at 1 µM [15] [%] | remaining binding at 1 µM [16] [%] | % Cont @ 1 uM [17] [%] | remaining binding at 1 µM [18] [%] | percent of control binding at 1 µM [19] [%] | remaining binding at 1 µM [20] [%] | other results |
| --- | --- | --- | --- | --- | --- | --- | --- | --- | --- | --- | --- | --- | --- | --- | --- | --- | --- | --- | --- | --- | --- |
| Cc1cn(-c2cc(NC(=O)c3cc(C#Cc4cnc5c(Nc6cnn(C)c6)cccn45)c(C)cc3F)cc(C(F)(F)F)c2)cn1 [Example 4, 2-fluoro-4-methyl-N-(3-(4-methyl-1H-imidazol-1-yl)-5-(trifluoromethyl)phenyl)-5-((8-((1-methyl-1H-pyrazol-4-yl)amino)imidazo[1,2-a]pyridin-3-yl)ethynyl)benzamide] | 60 | > 5 | < 50 | 2.6 | 75 | 0.25 | 25 | 70 | 89 | 0 | 36 | 6.6 | 11 | 8.4 | 0 | 1.2 | 38 | 4.1 | 11 | 40 | remaining binding at 1 µM [21]: 57%; remaining binding at 1 µM [22]: 15%; remaining binding at 1 µM [23]: 5.6%; remaining binding at 1 µM [24]: 50%; % Cont @ 1 uM [25]: 55%; % Cont @ 1 uM [26]: 65%; remaining binding at 1 µM [27]: 0.05%; % Cont @ 1 uM [28]: 30%; remaining binding at 1 µM [29]: 90%; remaining binding at 1 µM [30]: 91%; remaining binding at 1 µM [31]: 1.6%; remaining binding at 1 µM [32]: 0.4%; remaining binding at 1 µM [33]: 0.95% |
| Cc1cn(-c2cc(NC(=O)c3cc(C#Cc4cnc5c(Nc6cnn(C)c6)cccn45)c(C)cc3F)cc(C(C)(C)C#N)c2)cn1 [Example 1, N-(3-(2-cyanopropane-2-yl)-5-(4-methyl-1H-imidazol-1-yl)phenyl)-2-fluoro-4-methyl-5-((8-((1-methyl-1H-pyrazol-4-yl)amino)imidazo[1,2-a]pyridin-3-yl)ethynyl)benzamide] | 21 | > 5 | < 50 | 0.6 | 33 | 0 | 0.25 | 4 | 5.9 | 0 | 6.1 | 1.1 | 1.4 | 4 | 0 | 0 | 2.2 | 3.5 | 2 | 31 | remaining binding at 1 µM [21]: 26%; remaining binding at 1 µM [22]: 0.85%; remaining binding at 1 µM [23]: 1.9%; remaining binding at 1 µM [24]: 4.3%; % Cont @ 1 uM [25]: 14.8%; % Cont @ 1 uM [26]: 16%; remaining binding at 1 µM [27]: 0%; % Cont @ 1 uM [28]: 5.7%; remaining binding at 1 µM [29]: 19%; remaining binding at 1 µM [30]: 31%; remaining binding at 1 µM [31]: 0.1%; remaining binding at 1 µM [32]: 0.15%; remaining binding at 1 µM [33]: 0% |
